Where “and” joins values, the source holds several entries; their conditions need not be identical. Equal entries are not always repeated.
Key:
KLK3 = KLK3 mRNA in xenografted HBECs by RT-PCR with human-specific primers; format: in vivo; settings: 21 days pellets (Fig 5M)
Description: Consistent with AR and PR sharing a common hormone response element (Claessens et al, 1996), KLK3 was induced upon progestin stimulation. […] This is in agreement with previous findings that KLK3 expression is under the control of both androgens and progestins in T47D cells (Zarghami et al, 1997).
(§1) Next, we sought for a readout of in vivo cell proliferation different from radiance. […] Given that MKI67 expression could replace the luciferase measurements as a readout, we used a modified experimental setup for a second round of experiments. We derived HBECs from viably frozen mammoplasty samples (Appendix Table S3) and engrafted them to different mammary glands of NSG females without viral infection. Four months later, the 24 recipient females, each engrafted with 5 different mammoplasties received pellets containing either vehicle, progesterone, or 1 of 6 progestins for 21 days. At sacrifice, xenografted glands were histologically sectioned and cell proliferation was quantified using co‐IF with anti‐MKI67 and anti‐hECAD antibodies. For one of the mammoplasties, we were able to obtain measurements for all experimental conditions (Fig 5I). […] For the remaining mammoplasties, between 3 and 8 different experimental conditions were successfully quantified (Appendix Table S4). […] CPA (P < 0.0001) decreased proliferation, whereas CMA and DSP had no effect (Fig 5K). As AR signaling increases AR protein levels, we performed co‐IF for AR and hECAD as another means to assess AR signaling activity.
(§2) Human breast microstructures and mouse organoids were homogenized in Trizol (Invitrogen). Aqueous phase containing RNA was chloroform extracted and processed with miRNeasy extraction kit (Qiagen). cDNA was synthesized using random p(dN)6 primers (Roche) and MMLV reverse transcriptase (Invitrogen). SYBR Green PCR Core Reagent System (Qiagen) was used for semi‐quantitative real time (RT‐PCR) using the following primers.

Wnt4 [1] = assay: Wnt4 transcript levels by RT-PCR in mouse mammary organoids stimulated ex vivo; format: cell-based; settings: for Wnt4 transcript levels over vehicle-treated control: BalbC females, 6 h of stimulation
Procedure: (§3) Next, we stimulated mouse mammary organoids derived from several BalbC females with R5020 or different progestins (Fig 1A). […] No significant change in Rankl and Wnt4 transcript levels was detected during the first 2 h (Appendix Fig S1D). By 6 h of R5020 stimulation, Rankl and Wnt4 transcript levels increased 22.4 and 5.8‐fold over the vehicle‐treated control, respectively.
(§4) Animal experiments were performed in accordance with protocol approved by the Service de la Consommation et des Affaires vétérinaires of Canton de Vaud (VD 1865.3, VD 1865.4). NOD. Cg‐Prkdc^scid Il2rg^tm1Wjl/SzJ mice (Charles River), BalbC, and C57Bl6 breeders were purchased from Jackson Laboratories. Mammary glands were isolated from 18‐ to 35‐week‐old mice, lymph nodes removed, minced with surgical blades, and digested in DMEM/F12, 1% penicillin/streptomycin B with collagenase A 0.25 mg/ml (Roche). […] Fat was removed, and pellet containing organoids washed with phosphate‐buffered saline (PBS), resuspended 5 min in 3 ml red cell blood lysis buffer and washed twice with PBS.
as §2

human breast epithelium = settings: female, mouse, in vivo, 8 months
Procedure: All the engrafted glands were processed for histological analysis and H&E stained.
(§7) Mice were anesthetized by intraperitoneal injection with 10 mg/kg xylazine and 90 mg/kg ketamine (Graeub) and injected intraductally with 10 μl cell suspension per gland. Bioluminescence imaging was performed as described (Sflomos et al, 2016). After 3–10 weeks, when bioluminescence from individual glands reached 10^7 total flux (p/s/cm2/sr), animals were assigned to different treatment groups and hormone pellets implanted subcutaneously. Enzalutamide (Selleckchem, Catalog No. S1250) dissolved in 15% DMSO in PEG300 was injected intraperitoneally 3 times/week at 30 mg/kg.

AR = system: AR; design: method as in earlier work; settings: various assays, ref Fuhrmann et al, 1995, Muhn et al, Bouchard, 2005, Mishell, 2008, Schneider et al, 2009, Africander et al, 2011, Louw‐du Toit et al, 2017; cited from earlier work
HBECs [2] = assay: In vivo growth of intraductal HBEC xenografts measured by radiance; settings: 60 days of treatment, subcutaneous pellets
Description: To compare the effects of progesterone and different progestins on HBECs in vivo, we infected single cell suspensions obtained from fresh reduction mammoplasty specimens with GFP‐luciferase2‐expressing lentiviruses. The infected cell mixture was grafted intraductally to up to 5 glands of as many recipients as possible. The engraftment and growth of the xenografted cells were monitored weekly by in vivo imaging. When radiance reached > 10E07 on average per mammary gland, 60‐day‐release pellets were implanted subcutaneously, usually within 3–10 weeks after cell injection. At sacrifice, blood was collected and plasma levels of the administered compounds as well as endogenous steroid hormones were determined by liquid chromatography‐mass spectrometry (LC‐MS) (Laszlo et al, 2019).
Next, the in vivo growth of HBEC xenografts stimulated with progesterone or different progestins was analyzed. […] In addition, the fold change radiance of treated versus untreated samples at endpoint was calculated (Fig 5A–C).
as §7
Pellets were prepared by mixing the required amount of part A, MP3745/E81949 and part B, MP3744/E81950 of low consistency silicon elastomer (MED‐4011) and hormone powder to homogeneity. Mix was transferred to a syringe and incubated at 37°C overnight. The silicon‐hormone mass was removed from the syringe and cut to pieces, as described (Duss et al, 2007). The original protocol was adapted for different doses as described below.

HBECs [3] = assay: MKI67/Ki67 expression in xenografted HBECs; format: in vivo, human; settings: 21 days pellets; for cell proliferation (KI67 and hECAD double+ cells), overall analysis: HBECs from 11 different patients; for cell proliferation (KI67 and hECAD double+ cells): one mammoplasty (M310)
Description: as §1
Tissues were fixed for 2 h at room temperature in 4% paraformaldehyde and paraffin‐embedded. Dewaxed and rehydrated paraffin sections were pretreated in 10 mM Na citrate (pH 6.0) at 95° for 20 min. Blocking was performed with 1% BSA for 60 min. Primary antibodies used were as follows: Ki67 (rabbit α‐Ki67, clone Sp6, Spring Amsbio, dilution 1:200), ER (rabbit α‐ER, clone Sp1, Zytomed RTU), PR (rabbit α‐PR, clone 1E2, Ventana RTU), AR (rabbit α‐AR, clone SP107, Thermo Fisher, diluted 1:200), CK7 (rabbit α‐CK7, clone Sp52, Abcam, diluted 1:500), CK19 (mouse KS19.2 (Z105.6), American Research Products Inc. (diluted 1:50), and mouse α‐ECAD (clone G‐10, sc‐8426, diluted 1:100). For IHC, chromogenic revelation was performed with ChromoMap DAB kit (Roche Diagnostics, Switzerland) and sections were counterstained with Mayer’s hematoxylin. For fluorescence microscopy, nuclei were counterstained with DAPI (Sigma). IHC for ER, PR, and AR was performed on Discovery Ventana ULTRA (44). IHC images were acquired on Leica DM 2000 with Leica DFC450 C camera. IF images were acquired on Zeiss LSM700 confocal microscope. Slides were scanned with Olympus VS120‐L100 slide scanner with 20×/0.75 objective and Pike F505 C Color camera. Images were loaded into QuPath using the BioFormats extension (Bankhead et al, 2017).

Rankl [4] = assay: Rankl transcript levels by RT-PCR in mouse mammary organoids stimulated ex vivo; format: cell-based; settings: for Rankl transcript levels over vehicle-treated control: BalbC females, 6 h of stimulation
Procedure: as §3, §4, §2

[5] = system: endogenous hormone levels in mice; assay: Endogenous steroid hormone plasma levels in treated host mice by LC-MS; format: in vivo, mouse; settings: xenografted NSG females with pellets
Description: Next, we assessed whether progesterone and progestins differentially affected endogenous hormone levels in mice. Plasma 17‐β‐estradiol levels were not affected by any of the treatments (Fig 4H). […] Plasma testosterone levels were not altered by any treatment with the exception of DSP, which decreased them (Fig 4H). Thus, prolonged exposures to progestins differentially affect endogenous progesterone plasma levels and DSP decreases testosterone plasma levels in host mice.

Wnt4 [6] = assay: Wnt4 induction by R5020 or LNG in mouse mammary organoids co-treated with AR antagonists; format: cell-based; settings: antagonist 100 µM, 6 h, C57Bl6-derived organoids
Procedure: (§5) Enzalutamide (100 µM) abrogated Rankl induction by R5020 (P < 0.05) but had no effect on Wnt4 induction (Fig 1H).
(§6) Animal experiments were performed in accordance with protocol approved by the Service de la Consommation et des Affaires vétérinaires of Canton de Vaud (VD 1865.3, VD 1865.4). NOD. Cg‐Prkdc^scid Il2rg^tm1Wjl/SzJ mice (Charles River), BalbC, and C57Bl6 breeders were purchased from Jackson Laboratories. Mammary glands were isolated from 18‐ to 35‐week‐old mice, lymph nodes removed, minced with surgical blades, and digested in DMEM/F12, 1% penicillin/streptomycin B with collagenase A 0.25 mg/ml (Roche). Tissue was concomitantly stimulated with hormones for 1, 2, or 6 h and centrifuged at 652 g for 5 min. Fat was removed, and pellet containing organoids washed with phosphate‐buffered saline (PBS), resuspended 5 min in 3 ml red cell blood lysis buffer and washed twice with PBS.
as §2

Rankl [7] = assay: Rankl induction by R5020 or LNG in mouse mammary organoids co-treated with AR antagonists; format: cell-based; settings: 6 h
Procedure: as §5, §6, §2

HBECs [8] = assay: In vivo growth of HBEC xenografts treated with LNG with or without enzalutamide; design: species or system human; settings: enzalutamide 30 mg/kg intraperitoneally 3 times/week, the 2 LNG-responsive PDXs
Procedure: Mice were anesthetized by intraperitoneal injection with 10 mg/kg xylazine and 90 mg/kg ketamine (Graeub) and injected intraductally with 10 μl cell suspension per gland. […] After 3–10 weeks, when bioluminescence from individual glands reached 10^7 total flux (p/s/cm2/sr), animals were assigned to different treatment groups and hormone pellets implanted subcutaneously. Enzalutamide (Selleckchem, Catalog No. S1250) dissolved in 15% DMSO in PEG300 was injected intraperitoneally 3 times/week at 30 mg/kg.

[9] = BalbC-derived organoids, 24 h of stimulation
[10] = antagonist 100 µM, C57Bl6-derived organoids

| SMILES | KLK3 transcripts levels (KLK3) | Wnt4 transcript levels over vehicle-treated control (Wnt4 [1]) [fold] | Wnt4 transcript induction (Wnt4 [1]; [9]) [fold] | Wnt4 transcript induction (Wnt4 [1]; C57Bl/6 mice, 6 h, 20 nM) [fold] | morphologic changes in xenografts (H&E) (human breast epithelium) | androgenic / anti-androgenic activity (AR) | growth (course of radiance) of engrafted HBECs versus control (HBECs [2]) | relative radiance at endpoint over control (FC) (HBECs [2]) | cell proliferation (KI67 and hECAD double+ cells), overall analysis (HBECs [3]) | cell proliferation (KI67 and hECAD double+ cells) (HBECs [3]) | Rankl transcript levels over vehicle-treated control (Rankl [4]) [fold] | Rankl transcript induction (Rankl [4]; [9]) [fold] | Rankl transcript induction (Rankl [4]; C57Bl/6 mice, 6 h, 20 nM) [fold] | endogenous progesterone plasma levels (estrous cycle-related variation) [5] | effect of AR antagonist on Wnt4 induction by LNG (Wnt4 [6]) | effect of AR antagonist on Wnt4 induction by R5020 (Wnt4 [6]) | effect of AR antagonist on Rankl induction (Rankl [7]; antagonist 10 µM, n = 3) | effect of AR antagonist on Rankl induction by LNG (Rankl [7]; [10]) | effect of AR antagonist on Rankl induction by R5020 (Rankl [7]; [10]) | effect of enzalutamide on LNG-induced proliferation (HBECs [8]) |
| --- | --- | --- | --- | --- | --- | --- | --- | --- | --- | --- | --- | --- | --- | --- | --- | --- | --- | --- | --- | --- |
| C#C[C@]1(O)C=C[C@H]2[C@@H]3CCC4=CC(=O)CC[C@@H]4[C@H]3CC[C@@]21CC [GSN, gestodene] | increased | 4.9 | 33.5 | 3.6 | 3 or 4 grafts showed diffuse and in some cases marked acinar proliferation | androgenic activity | increased growth | 2.2 fold | increased | significantly increased | 18.2 | 617.2 | 21.5 | suppressed |  |  |  |  |  |  |
| C#C[C@]1(O)CC[C@H]2[C@@H]3CCC4=CC(=O)CC[C@@H]4[C@H]3C(=C)C[C@@]21CC [DSG, 3‐ketodesogestrel] | increased | 8.5 | 32.2 | 4.2 | 3 or 4 grafts showed diffuse and in some cases marked acinar proliferation | androgenic activity | increased growth | 2 fold and 2.0 fold | increased | significantly increased | 22.3 | 177.2 | 15.5 | suppressed |  |  |  |  |  |  |
| CNC(=O)c1ccc(N2C(=S)N(c3ccc(C#N)c(C(F)(F)F)c3)C(=O)C2(C)C)cc1F [enzalutamide] |  |  |  |  |  |  |  |  |  |  |  |  |  |  | not affected | no effect | failed to reach significance | significantly reduced | abrogated | decreased the proliferative effects of LNG |

Source: publication PMC8261488, “Contraceptive progestins with androgenic properties stimulate breast epithelial cell proliferation” (EMBO Molecular Medicine, 2021)
